Patent US20260042731A1, “(2,4-DICHLOROPHENOXY)ACETIC ACID ANALOGS” (CORTEVA AGRISCIENCE LLC, priority 2022, published 2026)
Where two headings read alike, the source gives them in different places.

Assays:
[1] = Volatility of compounds measured by thermogravimetric analysis (TGA); format: physicochemical
[2] = system: Amaranthus rudis (AMATA), tall water hemp; experiment: Postemergence herbicide evaluation, growth of Amaranthus rudis (AMATA); format: in vivo; settings: Amaranthus tuberculatus, post-emergence, percent reduction in plant size relative to untreated control, read-out: Ave. AMATA; for pest or weed control at 280 g/ha: 280 g ae/ha; for pest or weed control at 560 g/ha: 560 g ae/ha
[3] = system: Chenopodium album (CHEAL), common lambsquarters; experiment: Postemergence herbicide evaluation, growth of Chenopodium album (CHEAL); format: in vivo; settings: Chenopodium album, post-emergence, percent reduction in plant size relative to untreated control, read-out: Ave. CHEAL; for pest or weed control at 280 g/ha: 280 g ae/ha; for pest or weed control at 560 g/ha: 560 g ae/ha
[4] = system: Ambrosia artemisiifolia (AMBEL), common ragweed; experiment: Postemergence herbicide evaluation, growth of Ambrosia artemisiifolia (AMBEL); format: in vivo; settings: Ambrosia artemisiifolia, post-emergence, percent reduction in plant size relative to untreated control, read-out: AVE. AMBEL; for pest or weed control at 280 g/ha: 280 g ae/ha; for pest or weed control at 560 g/ha: 560 g ae/ha
[5] = system: weeds (ABUTH, AMATA, AMBEL, CHEAL, ERICA); experiment: Postemergence herbicide evaluation, overall average % weed control across ABUTH, AMATA, AMBEL, CHEAL, ERICA; format: in vivo; settings: post-emergence, average over the five weeds, read-out: Overall Ave % Weed Control; for pest or weed control at 280 g/ha: 280 g ae/ha; for pest or weed control at 560 g/ha: 560 g ae/ha
[6] = system: Abutilon theophrasti (ABUTH), velvetleaf; experiment: Postemergence herbicide evaluation, growth of Abutilon theophrasti (ABUTH); format: in vivo; settings: Abutilon theophrasti, post-emergence, percent reduction in plant size relative to untreated control, read-out: AVE. ABUTH; for pest or weed control at 280 g/ha: 280 g ae/ha; for pest or weed control at 560 g/ha: 560 g ae/ha
[7] = system: glyphosate resistant Conyza canadensis (L.) (ERICA), horseweed; experiment: Postemergence herbicide evaluation, growth of Conyza canadensis (ERICA); format: in vivo; settings: Erigeron canadensis, post-emergence, percent reduction in plant size relative to untreated control, read-out: Ave. ERICA; for pest or weed control at 280 g/ha: 280 g ae/ha; for pest or weed control at 560 g/ha: 560 g ae/ha

C/C(C/C(C)=N/OC(=O)COc1ccc(Cl)cc1Cl)=N\OC(=O)COc1ccc(Cl)cc1Cl [Compound B6, (2,4)-Pentane-2,4-dione O,O-di(2-(2,4-dichlorophenoxy)acetyl) dioxime]
TGA Data (rate of weight loss, volatility) [1]: 3.7 µg/min | pest or weed control at 280 g/ha ([2]; 168 h, 7 DAA): 75% | pest or weed control at 560 g/ha ([2]; 168 h, 7 DAA): 73% | pest or weed control at 280 g/ha ([2]; 336 h, 14 DAA): 75% | pest or weed control at 560 g/ha ([2]; 336 h, 14 DAA): 80% | pest or weed control at 280 g/ha ([2]; 504 h, 21 DAA): 75% | pest or weed control at 560 g/ha ([2]; 504 h, 21 DAA): 83% | pest or weed control at 280 g/ha ([3]; 168 h, 7 DAA): 70% | pest or weed control at 560 g/ha ([3]; 168 h, 7 DAA): 70% | pest or weed control at 280 g/ha ([3]; 336 h, 14 DAA): 88% | pest or weed control at 560 g/ha ([3]; 336 h, 14 DAA): 78% | pest or weed control at 280 g/ha ([3]; 504 h, 21 DAA): 93% | pest or weed control at 560 g/ha ([3]; 504 h, 21 DAA): 75% | pest or weed control at 280 g/ha ([4]; 168 h, 7 DAA): 68% | pest or weed control at 560 g/ha ([4]; 168 h, 7 DAA): 70% | pest or weed control at 280 g/ha ([4]; 336 h, 14 DAA): 93% | pest or weed control at 560 g/ha ([4]; 336 h, 14 DAA): 93% | pest or weed control at 280 g/ha ([4]; 504 h, 21 DAA): 96% | pest or weed control at 560 g/ha ([4]; 504 h, 21 DAA): 100% | pest or weed control at 280 g/ha ([5]; 168 h, 7 DAA): 72% | pest or weed control at 560 g/ha ([5]; 168 h, 7 DAA): 74% | pest or weed control at 280 g/ha ([5]; 336 h, 14 DAA): 88% | pest or weed control at 560 g/ha ([5]; 336 h, 14 DAA): 85% | pest or weed control at 280 g/ha ([5]; 504 h, 21 DAA): 91% | pest or weed control at 560 g/ha ([5]; 504 h, 21 DAA): 89% | pest or weed control at 280 g/ha ([6]; 168 h, 7 DAA): 78% | pest or weed control at 560 g/ha ([6]; 168 h, 7 DAA): 83% | pest or weed control at 280 g/ha ([6]; 336 h, 14 DAA): 90% | pest or weed control at 560 g/ha ([6]; 336 h, 14 DAA): 86% | pest or weed control at 280 g/ha ([6]; 504 h, 21 DAA): 92% | pest or weed control at 560 g/ha ([6]; 504 h, 21 DAA): 89% | pest or weed control at 280 g/ha ([7]; 168 h, 7 DAA): 68% | pest or weed control at 560 g/ha ([7]; 168 h, 7 DAA): 75% | pest or weed control at 280 g/ha ([7]; 336 h, 14 DAA): 93% | pest or weed control at 560 g/ha ([7]; 336 h, 14 DAA): 88% | pest or weed control at 280 g/ha ([7]; 504 h, 21 DAA): 98% | pest or weed control at 560 g/ha ([7]; 504 h, 21 DAA): 99%

Cn1c(O)c(C(=O)COc2ccc(Cl)cc2Cl)c2ccccc21 [Compound C1, 2-(2,4-Dichlorophenoxy)-1-(2-hydroxy-1-methyl-1H-indol-3-yl)ethanone]
TGA Data (rate of weight loss, volatility) [1]: 0.7 µg/min | pest or weed control at 280 g/ha ([2]; 168 h, 7 DAA): 63% | pest or weed control at 560 g/ha ([2]; 168 h, 7 DAA): 0% | pest or weed control at 280 g/ha ([2]; 336 h, 14 DAA): 70% | pest or weed control at 560 g/ha ([2]; 336 h, 14 DAA): 0% | pest or weed control at 280 g/ha ([2]; 504 h, 21 DAA): 68% | pest or weed control at 560 g/ha ([2]; 504 h, 21 DAA): 0% | pest or weed control at 280 g/ha ([3]; 168 h, 7 DAA): 68% | pest or weed control at 560 g/ha ([3]; 168 h, 7 DAA): 0% | pest or weed control at 280 g/ha ([3]; 336 h, 14 DAA): 78% | pest or weed control at 560 g/ha ([3]; 336 h, 14 DAA): 0% | pest or weed control at 280 g/ha ([3]; 504 h, 21 DAA): 77% | pest or weed control at 560 g/ha ([3]; 504 h, 21 DAA): 0% | pest or weed control at 280 g/ha ([4]; 168 h, 7 DAA): 48% | pest or weed control at 560 g/ha ([4]; 168 h, 7 DAA): 0% | pest or weed control at 280 g/ha ([4]; 336 h, 14 DAA): 65% | pest or weed control at 560 g/ha ([4]; 336 h, 14 DAA): 0% | pest or weed control at 280 g/ha ([4]; 504 h, 21 DAA): 65% | pest or weed control at 560 g/ha ([4]; 504 h, 21 DAA): 0% | pest or weed control at 280 g/ha ([5]; 168 h, 7 DAA): 61% | pest or weed control at 560 g/ha ([5]; 168 h, 7 DAA): 0% | pest or weed control at 280 g/ha ([5]; 336 h, 14 DAA): 72% | pest or weed control at 560 g/ha ([5]; 336 h, 14 DAA): 0% | pest or weed control at 280 g/ha ([5]; 504 h, 21 DAA): 72% | pest or weed control at 560 g/ha ([5]; 504 h, 21 DAA): 0% | pest or weed control at 280 g/ha ([6]; 168 h, 7 DAA): 68% | pest or weed control at 560 g/ha ([6]; 168 h, 7 DAA): 0% | pest or weed control at 280 g/ha ([6]; 336 h, 14 DAA): 63% | pest or weed control at 560 g/ha ([6]; 336 h, 14 DAA): 0% | pest or weed control at 280 g/ha ([6]; 504 h, 21 DAA): 63% | pest or weed control at 560 g/ha ([6]; 504 h, 21 DAA): 0% | pest or weed control at 280 g/ha ([7]; 168 h, 7 DAA): 60% | pest or weed control at 560 g/ha ([7]; 168 h, 7 DAA): 0% | pest or weed control at 280 g/ha ([7]; 336 h, 14 DAA): 85% | pest or weed control at 560 g/ha ([7]; 336 h, 14 DAA): 0% | pest or weed control at 280 g/ha ([7]; 504 h, 21 DAA): 90% | pest or weed control at 560 g/ha ([7]; 504 h, 21 DAA): 0%
